Here are results for four compounds from US11078207B2, “Substituted pyrrolo[2,3-d]pyrimidines as HER2 inhibitors” (TAIHO PHARMACEUTICAL CO., LTD., priority 2019, dated 2021).

Molecules are shown by their SMILES.

Series [1] deals with HER2 exon 20 insertion mutant (HER2ex20insYVMA, A775_G776insYVMA) (Homo sapiens, UniProt P04626, DUP772-775). The experiment in a line: Inhibitory action (in vitro) against HER2 exon 20 insertion mutant phosphorylation activity. The class given is biochemical. The following applies: 30 min pre-incubation, ATP 200 μM, 25° C. 220 minutes. The text has this: In order to determine conditions for a method of measuring the in vitro inhibitory activity of a compound against HER2 exon 20 insertion mutant phosphorylation activity, as in the case of HER2, ProfilerPro Peptide 22 was used as a substrate. A purified recombinant human HER2 exon 20 insertion mutant (A775_G776insYVMA) protein is shown in SEQ ID NO: 7, and was purchased from SignalChem. Upon the measurement of the inhibitory activity of the compound, first, the compound of the present invention was diluted stepwise with dimethyl sulfoxide (DMSO). Subsequently, the HER2 exon 20 insertion mutant protein and the compound of the present invention in DMSO solution (final concentration of DMSO: 5%) were added into a buffer for the kinase reaction (13.5 mM Tris (pH 7.5), 2 mM dithiothreitol, and 0.009% Tween 20), and the obtained mixture was then pre-incubated at 25° C. for 30 minutes. Thereafter, the substrate peptide (final concentration: 1 μM), manganese chloride (final concentration: 25 mM), magnesium chloride (final concentration: 20 mM), and ATP (final concentration: 200 μM) were added into the reaction mixture, and the thus obtained mixture was then incubated at 25° C. for 220 minutes, so that the kinase reaction was carried out. To the reaction solution, EDTA was added to a final concentration of 30 mM, so as to terminate the reaction. Finally, using LabChip (registered trademark) EZ Reader II (PerkinElmer), an unphosphorylated substrate peptide (S) and a phosphorylated peptide (P) were separated and detected according to microchannel capillary electrophoresis.
HER2 exon 20 insertion mutant (HER2ex20insYVMA, A775_G776insYVMA), sequence (P04626 with tags, fused parts or gaps DUP772-775): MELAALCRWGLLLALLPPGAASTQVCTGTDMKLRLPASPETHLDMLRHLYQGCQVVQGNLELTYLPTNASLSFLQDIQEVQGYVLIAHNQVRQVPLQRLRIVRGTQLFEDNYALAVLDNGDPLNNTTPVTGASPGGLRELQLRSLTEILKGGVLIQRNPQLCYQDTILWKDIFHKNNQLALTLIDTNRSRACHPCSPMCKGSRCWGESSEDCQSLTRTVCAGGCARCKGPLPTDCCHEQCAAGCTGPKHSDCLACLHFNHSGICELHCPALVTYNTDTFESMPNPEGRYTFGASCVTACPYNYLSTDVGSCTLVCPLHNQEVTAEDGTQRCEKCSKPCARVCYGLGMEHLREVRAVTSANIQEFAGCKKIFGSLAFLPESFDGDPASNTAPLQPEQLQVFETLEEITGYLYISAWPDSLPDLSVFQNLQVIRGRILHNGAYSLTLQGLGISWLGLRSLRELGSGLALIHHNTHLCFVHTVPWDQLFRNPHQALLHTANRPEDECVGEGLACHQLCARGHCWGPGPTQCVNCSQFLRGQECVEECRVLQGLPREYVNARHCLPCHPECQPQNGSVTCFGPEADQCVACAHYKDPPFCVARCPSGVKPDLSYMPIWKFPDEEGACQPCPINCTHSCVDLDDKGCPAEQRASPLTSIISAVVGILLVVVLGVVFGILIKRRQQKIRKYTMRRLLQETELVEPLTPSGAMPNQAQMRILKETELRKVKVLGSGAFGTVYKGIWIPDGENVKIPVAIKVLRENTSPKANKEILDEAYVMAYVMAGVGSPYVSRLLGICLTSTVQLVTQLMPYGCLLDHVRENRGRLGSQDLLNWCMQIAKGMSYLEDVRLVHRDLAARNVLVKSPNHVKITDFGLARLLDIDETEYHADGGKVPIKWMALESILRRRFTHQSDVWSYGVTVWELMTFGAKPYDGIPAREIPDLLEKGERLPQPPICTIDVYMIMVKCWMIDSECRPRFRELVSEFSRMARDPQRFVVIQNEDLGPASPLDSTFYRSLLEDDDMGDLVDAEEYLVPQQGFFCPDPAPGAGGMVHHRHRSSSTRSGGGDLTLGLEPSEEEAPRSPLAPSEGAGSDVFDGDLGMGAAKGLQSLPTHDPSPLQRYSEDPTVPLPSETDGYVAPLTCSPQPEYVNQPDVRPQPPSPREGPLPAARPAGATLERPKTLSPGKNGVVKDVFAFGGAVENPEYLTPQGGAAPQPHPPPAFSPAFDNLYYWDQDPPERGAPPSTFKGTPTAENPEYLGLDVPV

In a further series the test system is NCI-N87 cells. The series is described as follows: Growth inhibitory activity against HER2 expressing cell line NCI-N87. The class given is cell-based. Particulars: Homo sapiens, NCI-N87, 72 h; 3 days, CellTiter-Glo 2.0. As to the method: NCI-N87 cells as a HER2 overexpressing human stomach cancer cell line (American Type Culture Collection, Cat No. ATCC (registered trademark) CRL-5822) were suspended in an RPMI640 medium (Wako Pure Chemical Industries, Ltd.) supplemented with 10% fetal bovine serum. Subsequently, the cell suspension was seeded in each well of a 96-well flat-bottom microplate, and was then cultured in a 5% carbon dioxide gas-containing culture vessel at 37° C. for 1 day. Thereafter, the compound of the present invention was dissolved in DMSO, and the compound was diluted to 1000 times the final concentration in DMSO. The compound in the DMSO solution was diluted with the medium used in the suspension of the cells, and the obtained solution was then added to each well of the culture plate, so that the final concentration of DMSO became 0.1%. Regarding a control well, DMSO was diluted with the medium used in the suspension of the cells, and the obtained solution was then added to each well of the culture plate, so that the final concentration of DMSO became 0.1%. After addition of a drug solution, the obtained mixture was further cultured in the 5% carbon dioxide gas-containing culture vessel at 37° C. for 3 days. After completion of the culture for 3 days in the presence of the compound, the cells were counted using CellTiter-Glo 2.0 (manufactured by Promega) in accordance with the protocols recommended by Promega. The growth inhibition percentage was calculated according to the following equation. […] Growth inhibitory percentage (%)=(C−T)/(C)×100 T: Emission intensity from the well to which the test compound was added C: Emission intensity from the well to which the test compound was not added

Series [2] in a line: Evaluation of oral absorbability. Type of series: in vivo, BALB/cA mice. Particulars: mouse; plasma, oral 50 mg/kg/day, BALB/cA mice. As to the method: The compound of the present invention was suspended or dissolved in 0.5% HPMC aqueous solution and 0.1 N hydrochloric acid, and the obtained suspension or solution was orally administered to BALB/cA mice (CLEA Japan, Inc.) at a dose of 50 mg/kg/day. At 0.5, 1, 2, 4 and 6 hours after completion of the oral administration, blood was collected from the facial vein over time, so as to obtain plasma. The concentration of the compound in the obtained plasma was measured by LC-MS/MS, and the oral absorbability of the present compound was evaluated.

In a further series the target is T1, HER2 (Homo sapiens, UniProt P04626).
T1 construct: purchased Carna Biosciences, Inc
T1 sequence (P04626 23-1255): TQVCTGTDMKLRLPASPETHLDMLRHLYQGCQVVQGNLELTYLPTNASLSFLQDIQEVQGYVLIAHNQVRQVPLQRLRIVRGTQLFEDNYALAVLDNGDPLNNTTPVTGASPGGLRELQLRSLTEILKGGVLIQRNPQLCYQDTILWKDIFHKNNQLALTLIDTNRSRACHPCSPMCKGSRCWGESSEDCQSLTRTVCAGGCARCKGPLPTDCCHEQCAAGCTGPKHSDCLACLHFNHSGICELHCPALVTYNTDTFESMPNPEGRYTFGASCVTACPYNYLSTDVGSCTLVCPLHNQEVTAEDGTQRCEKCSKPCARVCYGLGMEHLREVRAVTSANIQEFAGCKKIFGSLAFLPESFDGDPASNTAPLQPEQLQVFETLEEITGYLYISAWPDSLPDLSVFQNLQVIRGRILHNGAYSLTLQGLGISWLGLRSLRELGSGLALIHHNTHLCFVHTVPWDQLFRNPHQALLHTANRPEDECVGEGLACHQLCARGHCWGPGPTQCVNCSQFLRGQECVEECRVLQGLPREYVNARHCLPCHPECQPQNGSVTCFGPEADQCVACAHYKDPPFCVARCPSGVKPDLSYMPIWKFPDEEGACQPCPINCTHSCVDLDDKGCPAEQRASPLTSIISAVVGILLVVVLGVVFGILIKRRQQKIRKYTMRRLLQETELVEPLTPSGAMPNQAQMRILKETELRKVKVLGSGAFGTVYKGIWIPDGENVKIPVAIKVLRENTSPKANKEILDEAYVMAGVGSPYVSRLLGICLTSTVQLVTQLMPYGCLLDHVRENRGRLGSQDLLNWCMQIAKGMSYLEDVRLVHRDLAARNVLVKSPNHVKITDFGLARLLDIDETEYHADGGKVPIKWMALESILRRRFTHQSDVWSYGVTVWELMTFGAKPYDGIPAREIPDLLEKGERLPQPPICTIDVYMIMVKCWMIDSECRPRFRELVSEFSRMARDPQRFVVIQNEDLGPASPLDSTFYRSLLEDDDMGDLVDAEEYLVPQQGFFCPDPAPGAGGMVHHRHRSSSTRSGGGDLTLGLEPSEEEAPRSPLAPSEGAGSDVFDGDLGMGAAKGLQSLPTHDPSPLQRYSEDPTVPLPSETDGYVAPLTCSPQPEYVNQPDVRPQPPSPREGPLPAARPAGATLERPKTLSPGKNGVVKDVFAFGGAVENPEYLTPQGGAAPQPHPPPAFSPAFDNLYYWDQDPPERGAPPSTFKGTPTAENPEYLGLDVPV
The experiment in a line: Inhibitory effect (in vitro) on HER2 phosphorylation activity. The class given is biochemical. The following applies: recombinant human HER2, ATP 5 μM, 25° C. 30 minutes. The source says: In order to determine conditions for a method of measuring the in vitro inhibitory activity of a compound against HER2 phosphorylation activity, based on the report regarding a HER2 kinase reaction using, as a substrate, a peptide having the same sequence (5-FAM-[…]-CONH2) as that of ProfilerPro Peptide 22 of PerkinElmer (Xie H et al., PLoS One. 2011; 6(7): e21487), ProfilerPro Peptide 22 was used as a substrate. A purified recombinant human HER2 protein used in the present test was purchased from Carna Biosciences, Inc. Upon the measurement of the inhibitory activity of the compound, first, the compound of the present invention was diluted stepwise with dimethyl sulfoxide (DMSO). […] To the reaction solution, EDTA was added to a final concentration of 30 mM, so as to terminate the reaction. Finally, using LabChip (registered trademark) EZ Reader II (PerkinElmer), an unphosphorylated substrate peptide (S) and a phosphorylated peptide (P) were separated and detected according to microchannel capillary electrophoresis.

The target in the next series is Ba/F3-HER2insYVMA cells (Homo sapiens, UniProt P04626, DUP772-775, cells depend on it). The experiment in a line: Growth inhibitory activity against HER2 exon 20 insertion mutant expressing cell line. Type of series: cell-based, mouse. The following applies: 3 days, CellTiter-Glo 2.0, read-out: HER2ex20insYVMA cell growth inhibitory activity IC50 value. How it is done:
Growth inhibitory activity against the HER2 exon 20 insertion mutant was measured using Ba/F3 cells that were a mouse B lymphocyte precursor cell line, into which a human HER2 exon 20 insertion mutant gene had been introduced. The Ba/F3 cells were maintained in an RPMI-1640 medium (Thermo Fisher Scientific) supplemented with 10% fetal bovine serum (FBS), 100 U/mL penicillin, 100 μg/mL streptomycin (Thermo Fisher Scientific) and 1 ng/mL mouse interleukin-3 (mIL-3) (CST).
Upon evaluation of cell growth inhibitory activity, the Ba/F3-HER2insYVMA cells were suspended in an RPMI-1640 medium supplemented with 10% FBS, 100 U/mL penicillin, and 100 μg/mL streptomycin. The cell suspension was seeded in each well of a 96-well flat-bottom microplate, and was then cultured in a 5% carbon dioxide gas-containing culture vessel at 37° C. for 1 day. The compound of the present invention was dissolved in DMSO, and was then diluted with DMSO or the medium used in the suspension of the cells. The obtained solution was then added to each well of the culture plate, so that the final concentration of DMSO became 0.2%. The obtained mixture was further cultured in the 5% carbon dioxide gas-containing culture vessel at 37° C. for 3 days. After completion of the culture for 3 days in the presence of the compound, the cells were counted using CellTiter-Glo 2.0 (manufactured by Promega), and the growth inhibition percentage was then calculated according to the following equation. […] Growth inhibitory percentage (%)=(C−T)/(C)×100 T: Emission intensity from the well to which the test compound was added C: Emission intensity from the well to which the test compound was not added

For a further series, the system named is SK-BR-3 cells. The experiment in a line: Growth inhibitory activity against HER2 expressing cell line SK-BR-3. Type of series: cell-based. The following applies: Homo sapiens, SK-BR-3, 72 h; 3 days, CellTiter-Glo 2.0. As to the method:
SK-BR-3 cells as a HER2 overexpressing human breast cancer cell line were suspended in a McCoy's 5a medium (manufactured by Life Technologies) supplemented with 10% fetal bovine serum. The cell suspension was seeded in each well of a 384-well flat-bottom microplate, and was then cultured in a 5% carbon dioxide gas-containing culture vessel at 37° C. for 1 day. Thereafter, the compound of the present invention was dissolved in DMSO, and the compound was diluted to 500 times the final concentration in DMSO. The compound in the DMSO solution was diluted with DMSO solution or the medium used in the suspension of the cells, and the obtained solution was then added to each well of the culture plate so that the final concentration of DMSO was 0.2%. The obtained mixture was further cultured in the 5% carbon dioxide gas-containing culture vessel at 37° C. for 3 days. After completion of the culture for 3 days in the presence of the compound, the cells were counted using CellTiter-Glo 2.0 (manufactured by Promega), and the growth inhibition percentage was then calculated according to the following equation. […] Growth inhibitory percentage (%)=(C−T)/(C)×100 T: Emission intensity from the well to which the test compound was added C: Emission intensity from the well to which the test compound was not added

For the next series, the system named is p-gp or Bcrp. Particulars: Non Patent Literature 5; cited from earlier work.
In the next series the test system is brain metastatic cancer. The following applies: clinical tests, Non Patent Literatures 6-9; cited from earlier work.
For series [3] the following is noted: non-clinical tests, Non Patent Literature 5; cited from earlier work.

Ba/F3-HER2insYVMA cells, sequence (P04626 with tags, fused parts or gaps DUP772-775): as the sequence (P04626 with tags, fused parts or gaps DUP772-775) above

In the case of `C=CC(=O)N1C[C@H](n2c(C#CC(C)C)c(C(=O)NC(C)(C)c3ccccc3F)c3c(N)ncnc32)C[C@@H]1C` [Example 15, 7-((3R,5S)-1-acryloyl-5-methylpyrrolidin-3-yl)-4-amino-N-(2-(2-fluorophenyl)propan-2-yl)-6-(3-methylbut-1-yn-1-yl)-7H-pyrrolo[2,3-d]pyrimidine-5-carboxamide], the IC50 in [1] was determined as 0.42 nM; in the series on NCI-N87 cells, 11.6 nM; at HER2, 4.6 nM; with SK-BR-3 cells it was 7 nM. The AUC(0-t) in series [2] was found to be 34 µM·h. Besides, the GI50 on Ba/F3-HER2insYVMA cells stood at 40 nM.
Take `C=CC(=O)N1C[C@H](n2c(C#CC3CC3)c(C(=O)N[C@H](C)c3ccccc3)c3c(N)ncnc32)C[C@@H]1COCC` [Example 19, 7-((3R,5R)-1-acryloyl-5-(ethoxymethyl)pyrrolidin-3-yl)-4-amino-6-(cyclopropylethynyl)-N—((R)-1-phenylethyl)-7H-pyrrolo[2,3-d]pyrimidine-5-carboxamide]: the IC50 in series [1] stood at 1.1 nM; with NCI-N87 cells, 7.9 nM; on HER2, 4.4 nM; in the series with SK-BR-3 cells it was 17 nM. For the same compound, the AUC(0-t) in series [2] is 6.1 µM·h. For the same compound, on Ba/F3-HER2insYVMA cells, the GI50 came out at 50 nM.
Regarding `CS(=O)(=O)CCNCc1ccc(-c2ccc3ncnc(Nc4ccc(OCc5cccc(F)c5)c(Cl)c4)c3c2)o1` [Lapatinib], in the series on p-gp or Bcrp, the “substrate of p-gp or Bcrp” value is “substrates of p-gp or Bcrp”. In addition, the “effects against brain metastatic cancer” value in the series with brain metastatic cancer is given as “sufficient effects of these agents could not be obtained”. For the same compound, the brain penetration properties result in series [3] is reported as “limited”.
Turning to `CCOc1cc2ncc(C#N)c(Nc3ccc(OCc4ccccn4)c(Cl)c3)c2cc1NC(=O)/C=C/CN(C)C` [Neratinib], the “substrate of p-gp or Bcrp” value with p-gp or Bcrp was “substrates of p-gp or Bcrp”. For the same compound, in the series with brain metastatic cancer, the “effects against brain metastatic cancer” value is recorded as “sufficient effects of these agents could not be obtained”. In addition, the brain penetration properties result in series [3] is “limited”.
